From US20260085070A1, “HETEROCYCLIC CBL-B INHIBITORS FOR THE TREATMENT OF CANCER” (HOTSPOT THERAPEUTICS, INC., priority 2022, published 2026)

Target: T1, Cbl-b (Homo sapiens, UniProt Q13191)
T1 construct: Biotin (biotinylated protein)
Test: Cbl-b LCK Ub TR-FRET assay
Assay type: biochemical
Settings: Biotin-Cbl-b, His-LCK; no LCK as low control, DMSO as high control; IC50s binned A through C; read-out: CBL-B_TR-FRET_AVG_IC50
Experimental: Compounds are 3-told serially diluted in DMSO in a 384-well polypropylene plate (e.g., #P-05525-BC; Labcyte) to generate a source plate with 10 concentrations of each compound, top concentration=2 mM. 80 nL of DMSO or compounds are transferred to each well of a black 384-well ProxiPlate (e.g., #6008260; PerkinElmer) using a Labcyte Echo. 1× assay buffer (50 mM HEPES pH7.0, 100 mM NaCl, 0.01% BSA, 0.01% Triton-X100, 1 mM DTT), 2× enzyme solution (16 nM Biotin-Cbl-b or 12 nM Biotin-c-Cbl in 1× assay buffer), 2× kinase mixture (120 nM His-LCK, 1 mM ATP, 10 mM MgCl2 in assay buffer) and 2.33× detection mixture (4.66× solution 1:163 nM Anti-HA-D2 antibody (e.g., #610HADAB; PerkinElmer), 27.96 nM Streptavidin-EU (e.g., #AD0062; PerkinElmer), 1.398 mM EDTA in 1× assay buffer+4.66× solution 2: […] UBE2D2/Methylated-HA-Ubiquitin thioester adduct (e.g., BostonBiochem) in 1× assay buffer) are prepared. […] of 2× enzyme solution are added to each well containing compound, briefly centrifuged to mix, and incubated for 60 min at room temperature. […] of 2× kinase mixture is added, briefly centrifuged to mix, and incubated for 90 min. at room temperature. […] of detection mixture is added to all wells and briefly centrifuged before incubating for 20 min at room temperature. Plates are read for TR-FRET using an Envision at excitation 340 nm, emission at 615 and 665 nm, 4 flashes per well. IC50 is generated using no LCK as the low control and DMSO as the high control. Compound IC50s were binned into A through C as follows: A indicates <100 nM, B indicates 100 nM-500 nM, and C indicates >500 nM.

T1 sequence (Q13191 10-426): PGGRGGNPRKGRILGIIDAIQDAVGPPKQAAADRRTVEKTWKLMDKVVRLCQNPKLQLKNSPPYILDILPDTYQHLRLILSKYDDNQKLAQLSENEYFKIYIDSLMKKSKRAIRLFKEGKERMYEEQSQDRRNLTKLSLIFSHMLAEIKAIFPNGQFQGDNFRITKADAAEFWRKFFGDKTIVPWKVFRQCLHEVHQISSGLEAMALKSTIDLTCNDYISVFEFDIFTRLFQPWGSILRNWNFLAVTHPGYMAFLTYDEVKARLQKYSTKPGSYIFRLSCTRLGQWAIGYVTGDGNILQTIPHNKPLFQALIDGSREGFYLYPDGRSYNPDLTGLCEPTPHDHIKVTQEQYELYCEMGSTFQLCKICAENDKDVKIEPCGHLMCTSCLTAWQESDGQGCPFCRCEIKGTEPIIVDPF

IC50	Structure (SMILES)
< 100 nM	Cn1cnnc1-c1cc(F)ccc1-c1cccc(-n2cc3c(C(F)(F)F)cc(CNCC4(O)CCC4)cn3c2=O)c1 [Compound 1]
> 500 nM	C[C@H]1CCCN(Cc2cc(C(F)(F)F)c3cn(-c4cc(-c5ccc(F)cc5-c5nncn5C)cc(Cl)n4)c(=O)n3c2)C1 [Compound 3]
> 500 nM	C[C@H]1CCCN(Cc2cc(C(F)(F)F)c3cn(-c4cc(-c5ccc(F)cc5-c5nncn5C)cc(C5CC5)n4)c(=O)n3c2)C1 [Compound 2]
> 500 nM	C[C@H]1CCCN(Cc2cc(C(F)(F)F)c3cn(-c4cc(-c5ccc(F)cc5-c5nncn5C)cc(Br)n4)c(=O)n3c2)C1 [Compound 4]
